Key:
[1] = target: T1, ACE (Rattus norvegicus, UniProt P47820); assay: ACE inhibition activity using rat lung (Experiment B-2); assay type: biochemical; settings: rat lung membrane fraction, borate buffer
T1 construct: membrane fraction prepared from rat lung; from tissue; host or cells: rat lung, membrane fraction (method of Wu-Wong et al.)
T1 sequence (P47820 36-1313): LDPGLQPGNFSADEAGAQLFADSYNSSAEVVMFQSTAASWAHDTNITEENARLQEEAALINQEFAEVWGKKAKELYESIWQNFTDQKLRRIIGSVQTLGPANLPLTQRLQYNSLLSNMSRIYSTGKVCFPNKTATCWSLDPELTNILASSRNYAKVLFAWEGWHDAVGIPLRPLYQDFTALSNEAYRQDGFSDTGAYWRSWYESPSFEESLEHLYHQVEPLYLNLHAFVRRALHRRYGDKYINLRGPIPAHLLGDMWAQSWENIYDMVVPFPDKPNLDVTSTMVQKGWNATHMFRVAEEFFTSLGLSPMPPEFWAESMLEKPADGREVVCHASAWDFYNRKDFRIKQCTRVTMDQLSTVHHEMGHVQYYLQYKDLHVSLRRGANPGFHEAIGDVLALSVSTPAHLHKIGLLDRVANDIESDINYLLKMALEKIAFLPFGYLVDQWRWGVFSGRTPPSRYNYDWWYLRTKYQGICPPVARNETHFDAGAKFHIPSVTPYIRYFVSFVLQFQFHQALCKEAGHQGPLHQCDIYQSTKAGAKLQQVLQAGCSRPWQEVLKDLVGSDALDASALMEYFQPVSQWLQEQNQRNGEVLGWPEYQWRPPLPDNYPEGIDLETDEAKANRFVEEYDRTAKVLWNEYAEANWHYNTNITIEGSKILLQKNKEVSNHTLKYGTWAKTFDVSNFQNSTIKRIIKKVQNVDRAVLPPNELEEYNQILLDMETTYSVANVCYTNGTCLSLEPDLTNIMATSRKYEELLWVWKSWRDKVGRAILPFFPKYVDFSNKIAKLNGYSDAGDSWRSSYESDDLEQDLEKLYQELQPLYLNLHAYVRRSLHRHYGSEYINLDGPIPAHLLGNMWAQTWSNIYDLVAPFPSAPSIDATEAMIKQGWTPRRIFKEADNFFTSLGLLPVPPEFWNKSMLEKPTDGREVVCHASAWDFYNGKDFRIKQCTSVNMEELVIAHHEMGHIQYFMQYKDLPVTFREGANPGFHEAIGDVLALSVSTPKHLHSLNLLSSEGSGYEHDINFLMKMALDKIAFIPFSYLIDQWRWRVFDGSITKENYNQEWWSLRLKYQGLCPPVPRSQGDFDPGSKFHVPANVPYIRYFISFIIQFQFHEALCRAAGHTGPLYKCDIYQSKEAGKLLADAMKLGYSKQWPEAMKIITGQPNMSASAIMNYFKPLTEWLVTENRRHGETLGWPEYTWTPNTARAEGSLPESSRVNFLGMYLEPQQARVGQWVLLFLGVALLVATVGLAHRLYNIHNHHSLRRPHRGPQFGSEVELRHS
Method: The ACE inhibition activity was determined by using a membrane fraction prepared from rat lung in accordance with the method of Wu-Wong et al. (Characterization of Endthelin Converting Enzyme in Rat Lung., Junshyum R. Wu-Wong, Gerald, P. Budzik, Edward M. Devine and Terry J. Opgenorth, Biochem. Biophys. Res. Commun., 1990, 171, 1291-1296.).
The ACE activity was determined with the use of a modification (modified to a borate buffer, p11 8.3) of the method of Cushman and Cheung (Spectrophotometric Assay and Properties of the Angiotensin-Converting Enzyme of Rabbit Lung., Cushman, D. W. and Cheung H. S., 1971, 20, […].).
In the presence of ACE, the hippurate liberated from hippuryl-histidine-leucine (Hippuryl-His-Leu (PeptideInstitute Inc., Japan)) was extracted with ethyl acetate and then the absorbance was measured at a wavelength of 228 nm.
(§1) With respect to the ACE inhibition activity, the inhibitor was added to the reaction system as described above in such a manner as to give the final concentrations of 1, 3, 10, 30, 100, 300 and 1000 nM, an inhibition curve was prepared, and then the concentration at which 50% inhibition was achieved was taken as IC50.

[2] = target: T2, NEP (Rattus norvegicus, UniProt P07861); assay: NEP inhibition activity using rat renal cortex (Experiment B-1); assay type: biochemical; design: membrane fraction prepared from rat renal cortex; from tissue; host or cells: rat renal cortex, membrane fraction (method of Booth and Kenny); settings: rat renal cortex membrane fraction
T2 sequence (P07861 1-750): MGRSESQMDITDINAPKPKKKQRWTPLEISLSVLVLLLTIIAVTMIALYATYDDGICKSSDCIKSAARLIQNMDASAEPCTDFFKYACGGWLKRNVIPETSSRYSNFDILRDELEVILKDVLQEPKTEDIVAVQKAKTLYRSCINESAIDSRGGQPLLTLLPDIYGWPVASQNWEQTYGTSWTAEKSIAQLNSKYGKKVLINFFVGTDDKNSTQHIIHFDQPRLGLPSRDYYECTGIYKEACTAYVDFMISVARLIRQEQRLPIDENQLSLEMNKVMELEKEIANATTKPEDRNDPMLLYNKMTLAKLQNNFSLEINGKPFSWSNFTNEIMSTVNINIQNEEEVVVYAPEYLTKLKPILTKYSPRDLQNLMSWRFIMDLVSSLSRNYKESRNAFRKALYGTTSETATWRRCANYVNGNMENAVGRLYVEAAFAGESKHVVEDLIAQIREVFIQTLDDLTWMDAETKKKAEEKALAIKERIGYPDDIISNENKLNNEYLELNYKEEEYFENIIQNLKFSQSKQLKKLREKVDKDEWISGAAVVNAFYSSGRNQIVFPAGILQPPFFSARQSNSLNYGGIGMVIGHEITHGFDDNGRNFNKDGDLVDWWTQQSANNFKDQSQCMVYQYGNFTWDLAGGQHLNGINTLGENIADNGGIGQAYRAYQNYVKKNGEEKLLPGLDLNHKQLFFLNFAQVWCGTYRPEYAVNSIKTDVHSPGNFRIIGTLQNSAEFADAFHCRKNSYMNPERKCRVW
Method: The NEP activity was determined by using a membrane fraction prepared from rat renal cortex in accordance with the method of Booth and Kenay (A Rapid Metod for the Purificaton of Microvilli from Rabbit Kidney., Andrew G. Booth and A. John Kenny, Biochem j., 1974, 142, 575-581.).
The NEP activity was determined by the following manner in accordance with the method of Orlowsky and Wilk (Purification and Specificity of a Membrane-Bound Metalloendpeptldase from Bovine Pituitaries., Marian Orlowsky and Shrwin Wilk, Biochemistry, 1981, 20, 4942-4950.).
(§2) As a substrate, benzoyl-glycine-arginine-arginine-2-naphthylamide (benzoyl-Gly-Arg-Arg-2-naphthylamide (Nova Biochem, Switzerland)) was used. In the presence of an NEP enzyme preparation and excessive leucine aminopeptidase (sigma chemical Co., U.S.A.), the liberated naphthylamine was made to undergo color development with first garnet (Sigma chemical Co., U.S.A.), followed by the measurement of the absorbance at a wavelength of 540 nm.
as §1, with “NEP” for “ACE”

[3] = in vivo; settings: rat, in vivo; for bioavailability: po
Excerpt: Then changes in the blood level of each medicament were monitored with the lapse of time by using liquid chromatography.

[4] = target: T1, ACE; assay: ACE inhibition activity (Experiment E-1); assay type: biochemical; settings: rat lung membrane fraction, pH 8.3
Method: As a source of the enzyme ACE, a membrane fraction prepared from rat lung in accordance with the method of Wu-Wong et al. (Characterization of Endthelin Converting Enzyme in Rat Lung., Jinshyum R. Wu-Wong, Gerald, P. Budzik, Edward M. Devine and Terry J. Opgenorth, Biochem. Biophys. Res. Commun., 1990, 171, 1291-1296.) was used. The ACE activity was determined with the use of a modification (modified to a borate buffer pH 8.3) of the method of Cushman and Cheung (Spectrophotometric Assay and Properties of the Angiotensin-Converting Enzyme of Rabbit Lung., Cushman D. W. and Cheung H. S., 1971, 20, 1637-1648.). Now the procedure will be briefly described.
In the presence of ACE, the hippurate liberated from hippuryl-histidyl-leucine (Hippuryl-His-Leu (PeptideInstitute Inc., Japan)) was extracted with ethyl acetate and then the absorbance was measured at a wavelength of 228 nm.
(§3) To determine the NEP inhibition activity and the ACE inhibition activity, the inhibitor was added to the assay systems of both enzyme activities as described above in such a manner as to give the final concentrations of 1, 3, 10, 30, 100, […] and 1000 nM and inhibition curves were prepared. Then the concentration at which 50% inhibition was achieved was taken as IC50.

[5] = target: T2, NEP; assay: NEP inhibition activity (Experiment E-1); assay type: biochemical; design: membrane fraction prepared from rat renal cortex; from tissue; host or cells: rat renal cortex, membrane fraction (method of Booth and Kenny); settings: rat renal cortex membrane fraction
Method: As a source of the enzyme NEP, a membrane fraction prepared from rat renal cortex in accordance with the method of Booth and Kenny (A Rapid Method for the Purification of Microvilli from Rabbit Kidney., Andrew G. Booth and A. John Kenny, Biochem. j., 1974, 142,575-581.) was employed. The NEP activity was determined in accordance with the method of Orlowsky and Wilk (Purification and Specificity of a Membrane-Bound Metalloendpeptidase from Bovine Pituitaries., Marian Orlowsky and Shrwin Wilk, Biochemistry, 1981, 20, 4942-4950.). Now the procedure will be briefly described.
as §2, with “benzoyl-glycyl-arginyl-arginyl-2-naphthylamide (benzoyl-Gly-Arg-Arg-2 naphthylamide” for “benzoyl-glycine-arginine-arginine-2-naphthylamide (benzoyl-Gly-Arg-Arg-2-naphthylamide”
as §3

| IC50 [1] | IC50 [2] | bioavailability ([3]; 10 mg/kg) | bioavailability ([3]; 30 mg/kg) | IC50 [4] | IC50 [5] | SMILES | oral absorbability [3] |
| --- | --- | --- | --- | --- | --- | --- | --- |
| 60 nM | 55 nM | – | – | – | – | CCOC(=O)C1CCCC2c3sccc3CC(NC(=O)[C@H](Cc3ccccc3)SC(C)=O)C(=O)N12 (single isomer, unassigned) [Example B-7] | – |
| 90 nM | 72 nM | – | – | – | – | O=C(O)C1CCCC2c3sccc3CC(NC(=O)[C@@H](S)Cc3ccccc3)C(=O)N12 (stereo partly drawn) [Example B-8, 5-[(S)-2-Mercapto-1-oxo-3-phenylpropyl]amino-6-oxo-4,5,6,8,9,10,11,11a-octahydro[1,2-a]thieno-[2,3-c]azepine-8-carboxylic acid] | – |
| – | – | 18.8% | 24.6% | 10 nM | 28 nM | O=C(N[C@H]1Cc2ccc(-c3ccccc3)cc2[C@H]2CCC[C@@H](C(=O)O)N2C1=O)[C@@H](S)Cc1ccccc1 [Example E-6, [4S-[4α,7α(R*),12bβ]]-7-[(S)-2-Mercapto-3-phenylpropionylamino]-6-oxo-11-phenyl-1,2,3,4,6,7,8,12b-octahydropyrido[2,1-a][2]benzazepine-4-carboxylic acid] | superior in oral absorbability to the comparative compound E-1 |
| 16 nM | 8.6 nM | – | – | – | – | O=C(N[C@H]1Cc2sccc2[C@H]2CCC[C@@H](C(=O)O)N2C1=O)[C@@H](S)Cc1ccccc1 [Example B-3, [5S-[5α,8α(R*),11αβ]]-5-[[(S)-2-Mercapto-1-oxo-3-phenylpropyl]amino]-6-oxo-4,5,6,8,9,10,11,11a-octahydropyrido[1,2-a]thieno[3,2c]azepine-8-carboxylic acid] | – |

Source: patent US5679671A, “Amino acid derivative” (Eisai Co., Ltd., priority 1993, dated 1997)
